# Test results taken from PMC3119665, “A New Drug Design Targeting the Adenosinergic System for Huntington's Disease” (PLoS ONE, 2011).
# Columns and labels:
# [1] = molecular target: T1, Adrenergic α 2B (Homo sapiens, UniProt P18089); experiment: Radioligand binding panel (Table S1); details: 10 μM T1-11, n 2
# T1 construct: purchased MDS Pharma Services Taiwan
# [2] = molecular target: T2, Adrenergic α 2C (Homo sapiens, UniProt P18825); experiment: Radioligand binding panel (Table S1); details: 10 μM T1-11, n 2
# T2 construct: purchased MDS Pharma Services Taiwan
# [3] = molecular target: T3, Adrenomedullin AM1 (Homo sapiens, UniProt O60895+Q16602); experiment: Radioligand binding panel (Table S1); details: 10 μM T1-11, n 2
# T3 construct: purchased MDS Pharma Services Taiwan
# [4] = tested on: Androgen (Testosterone); experiment: Radioligand binding panel (Table S1); design: species or system human; details: 10 μM T1-11, n 2
# [5] = molecular target: T4, Bombesin BB3 (Homo sapiens, UniProt P32247); experiment: Radioligand binding panel (Table S1); details: 10 μM T1-11, n 2
# T4 construct: purchased MDS Pharma Services Taiwan
# [6] = tested on: Bombesin, Non-Selective; experiment: Radioligand binding panel (Table S1); design: species or system rat; details: 10 μM T1-11, n 2
# [7] = molecular target: T5, Bradykinin B1 (Homo sapiens, UniProt P46663); experiment: Radioligand binding panel (Table S1); details: 10 μM T1-11, n 2
# T5 construct: purchased MDS Pharma Services Taiwan
# T5 sequence (P46663 whole entry): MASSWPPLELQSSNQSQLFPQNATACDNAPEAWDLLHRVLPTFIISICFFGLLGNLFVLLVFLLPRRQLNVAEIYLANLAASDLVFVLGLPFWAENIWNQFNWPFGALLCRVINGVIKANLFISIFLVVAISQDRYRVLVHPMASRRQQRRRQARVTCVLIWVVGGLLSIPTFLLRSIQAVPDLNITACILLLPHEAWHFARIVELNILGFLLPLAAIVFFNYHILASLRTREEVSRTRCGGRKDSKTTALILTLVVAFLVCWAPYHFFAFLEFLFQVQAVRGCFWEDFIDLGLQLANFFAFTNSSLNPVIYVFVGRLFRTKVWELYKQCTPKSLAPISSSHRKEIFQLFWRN
# [8] = molecular target: T6, Dopamine D4.4 (Homo sapiens, UniProt P21917); experiment: Radioligand binding panel (Table S1); details: 10 μM T1-11, n 2
# T6 construct: purchased MDS Pharma Services Taiwan
# [9] = molecular target: T7, GABAB1A (Homo sapiens, UniProt Q9UBS5); experiment: Radioligand binding panel (Table S1); details: 10 μM T1-11, n 2
# T7 construct: purchased MDS Pharma Services Taiwan
# T7 sequence (Q9UBS5 15-961 limits assumed): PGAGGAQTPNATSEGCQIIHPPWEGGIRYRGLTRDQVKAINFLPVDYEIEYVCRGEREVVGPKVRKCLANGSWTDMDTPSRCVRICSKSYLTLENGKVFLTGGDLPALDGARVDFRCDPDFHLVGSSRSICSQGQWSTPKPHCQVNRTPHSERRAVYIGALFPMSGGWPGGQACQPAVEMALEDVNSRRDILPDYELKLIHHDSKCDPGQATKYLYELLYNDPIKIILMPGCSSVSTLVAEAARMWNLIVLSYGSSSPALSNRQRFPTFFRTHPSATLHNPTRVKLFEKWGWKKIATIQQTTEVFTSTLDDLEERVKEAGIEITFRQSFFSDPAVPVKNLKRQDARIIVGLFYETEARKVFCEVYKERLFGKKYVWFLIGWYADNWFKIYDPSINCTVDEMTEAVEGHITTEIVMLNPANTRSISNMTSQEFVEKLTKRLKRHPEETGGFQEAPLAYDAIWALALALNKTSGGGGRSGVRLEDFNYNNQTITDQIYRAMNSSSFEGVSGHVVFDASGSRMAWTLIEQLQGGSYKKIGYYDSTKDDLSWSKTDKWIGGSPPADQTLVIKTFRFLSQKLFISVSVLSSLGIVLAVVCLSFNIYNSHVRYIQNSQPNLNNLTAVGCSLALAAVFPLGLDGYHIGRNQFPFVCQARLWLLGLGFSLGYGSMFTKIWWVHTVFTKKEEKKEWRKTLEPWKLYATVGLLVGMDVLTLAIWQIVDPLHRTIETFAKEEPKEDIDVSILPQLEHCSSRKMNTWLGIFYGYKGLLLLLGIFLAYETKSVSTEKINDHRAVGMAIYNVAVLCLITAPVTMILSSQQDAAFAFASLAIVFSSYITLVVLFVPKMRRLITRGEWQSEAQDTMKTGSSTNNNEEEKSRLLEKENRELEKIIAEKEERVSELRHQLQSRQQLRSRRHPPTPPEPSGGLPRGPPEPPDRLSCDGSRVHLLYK
# T7 sequence (O75899 42-941 partner): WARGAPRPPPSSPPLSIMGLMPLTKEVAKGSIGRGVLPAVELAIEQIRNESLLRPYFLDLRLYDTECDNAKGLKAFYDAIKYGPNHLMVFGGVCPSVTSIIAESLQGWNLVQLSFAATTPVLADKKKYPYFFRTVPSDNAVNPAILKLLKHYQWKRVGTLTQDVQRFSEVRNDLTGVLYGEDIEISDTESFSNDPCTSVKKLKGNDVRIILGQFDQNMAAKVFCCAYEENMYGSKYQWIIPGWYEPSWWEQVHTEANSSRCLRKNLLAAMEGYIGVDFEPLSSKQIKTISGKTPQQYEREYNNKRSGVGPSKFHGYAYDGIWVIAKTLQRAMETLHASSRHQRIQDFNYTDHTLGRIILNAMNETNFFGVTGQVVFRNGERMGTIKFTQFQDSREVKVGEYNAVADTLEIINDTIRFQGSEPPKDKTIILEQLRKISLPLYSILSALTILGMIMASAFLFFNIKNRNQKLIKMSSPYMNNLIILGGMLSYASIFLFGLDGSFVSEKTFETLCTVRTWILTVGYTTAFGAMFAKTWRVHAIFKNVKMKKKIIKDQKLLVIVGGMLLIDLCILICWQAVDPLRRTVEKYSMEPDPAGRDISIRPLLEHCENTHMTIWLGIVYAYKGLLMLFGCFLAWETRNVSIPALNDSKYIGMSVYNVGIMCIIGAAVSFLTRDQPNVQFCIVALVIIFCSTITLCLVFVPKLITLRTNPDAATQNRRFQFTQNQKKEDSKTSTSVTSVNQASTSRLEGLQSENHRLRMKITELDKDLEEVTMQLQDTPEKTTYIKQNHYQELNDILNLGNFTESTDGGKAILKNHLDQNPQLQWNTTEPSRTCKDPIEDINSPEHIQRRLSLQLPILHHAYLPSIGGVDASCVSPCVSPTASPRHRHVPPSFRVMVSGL
# [10] = tested on: Gabapentin; experiment: Radioligand binding panel (Table S1); design: species or system rat; details: 10 μM T1-11, n 2
# [11] = tested on: Glutamate, NMDA, Polyamine; experiment: Radioligand binding panel (Table S1); design: species or system rat; details: 10 μM T1-11, n 2
# [12] = tested on: Glutamate, Non-Selective; experiment: Radioligand binding panel (Table S1); design: species or system rat; details: 10 μM T1-11, n 2
# [13] = molecular target: T8, Growth Hormone, Secretagogue (GHS, Ghrelin) (Homo sapiens, UniProt Q92847); experiment: Radioligand binding panel (Table S1); details: 10 μM T1-11, n 2
# T8 construct: purchased MDS Pharma Services Taiwan
# T8 sequence (Q92847 whole entry): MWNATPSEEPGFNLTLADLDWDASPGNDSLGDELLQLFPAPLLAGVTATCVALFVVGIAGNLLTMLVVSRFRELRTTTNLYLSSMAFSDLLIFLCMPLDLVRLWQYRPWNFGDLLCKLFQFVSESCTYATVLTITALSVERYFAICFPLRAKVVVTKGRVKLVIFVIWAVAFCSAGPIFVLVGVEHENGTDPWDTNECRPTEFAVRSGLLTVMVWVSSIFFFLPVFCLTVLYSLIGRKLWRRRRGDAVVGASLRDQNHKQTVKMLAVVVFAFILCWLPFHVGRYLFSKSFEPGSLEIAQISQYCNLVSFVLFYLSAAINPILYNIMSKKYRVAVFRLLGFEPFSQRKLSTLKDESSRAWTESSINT
# [14] = molecular target: T9, Interleukin IL-1 (Mus musculus, UniProt P13504); experiment: Radioligand binding panel (Table S1); details: 10 μM T1-11, n 2
# T9 construct: purchased MDS Pharma Services Taiwan
# T9 sequence (P13504 20-576): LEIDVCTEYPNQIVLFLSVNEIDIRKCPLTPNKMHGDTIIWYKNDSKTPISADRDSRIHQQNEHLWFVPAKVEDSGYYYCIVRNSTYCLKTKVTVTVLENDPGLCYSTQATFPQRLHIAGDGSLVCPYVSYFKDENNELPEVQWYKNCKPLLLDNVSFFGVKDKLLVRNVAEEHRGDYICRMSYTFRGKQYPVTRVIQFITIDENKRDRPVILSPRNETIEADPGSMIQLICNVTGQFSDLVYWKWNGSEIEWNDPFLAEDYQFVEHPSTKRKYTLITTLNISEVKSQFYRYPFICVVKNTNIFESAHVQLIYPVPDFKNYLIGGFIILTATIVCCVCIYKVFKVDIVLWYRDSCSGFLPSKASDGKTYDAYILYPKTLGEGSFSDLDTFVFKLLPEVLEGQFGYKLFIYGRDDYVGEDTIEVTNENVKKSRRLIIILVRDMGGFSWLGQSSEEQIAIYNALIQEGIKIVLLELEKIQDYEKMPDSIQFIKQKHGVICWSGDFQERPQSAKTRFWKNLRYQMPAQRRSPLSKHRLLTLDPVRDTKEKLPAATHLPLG
# [15] = molecular target: T10, Leptin (Mus musculus, UniProt P48356); experiment: Radioligand binding panel (Table S1); details: 10 μM T1-11, n 2
# T10 construct: purchased MDS Pharma Services Taiwan
# [16] = molecular target: T11, Leukotriene, BLT (LTB4) (Homo sapiens, UniProt Q15722); experiment: Radioligand binding panel (Table S1); details: 10 μM T1-11, n 2
# T11 construct: purchased MDS Pharma Services Taiwan
# [17] = tested on: Melatonin MT, Non-Selective; experiment: Radioligand binding panel (Table S1); design: species or system chicken; details: 10 μM T1-11, n 2
# [18] = molecular target: T12, Melatonin MT2 (Homo sapiens, UniProt P49286); experiment: Radioligand binding panel (Table S1); details: 10 μM T1-11, n 2
# T12 construct: purchased MDS Pharma Services Taiwan
# [19] = tested on: Muscarinic, Non-Selective, Central; experiment: Radioligand binding panel (Table S1); design: species or system rat; details: 10 μM T1-11, n 2
# [20] = molecular target: T13, N-Formyl Peptide Receptor, FPR1 (Homo sapiens, UniProt P21462); experiment: Radioligand binding panel (Table S1); details: 10 μM T1-11, n 2
# T13 construct: purchased MDS Pharma Services Taiwan
# T13 sequence (P21462 whole entry): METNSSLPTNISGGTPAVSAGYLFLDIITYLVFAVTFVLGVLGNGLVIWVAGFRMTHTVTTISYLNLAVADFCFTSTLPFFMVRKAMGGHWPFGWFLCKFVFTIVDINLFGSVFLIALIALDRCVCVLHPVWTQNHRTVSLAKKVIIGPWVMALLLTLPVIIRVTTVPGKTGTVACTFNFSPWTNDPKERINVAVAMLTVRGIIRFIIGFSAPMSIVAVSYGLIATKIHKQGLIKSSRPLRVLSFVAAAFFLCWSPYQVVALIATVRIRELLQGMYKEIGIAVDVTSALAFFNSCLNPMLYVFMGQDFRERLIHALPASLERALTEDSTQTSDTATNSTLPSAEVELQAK
# [21] = tested on: Nicotinic Acetylcholine; experiment: Radioligand binding panel (Table S1); design: species or system human; details: 10 μM T1-11, n 2
# [22] = tested on: Phorbol Ester; experiment: Radioligand binding panel (Table S1); design: species or system mouse; details: 10 μM T1-11, n 2
# [23] = tested on: Phosphodiesterase PDE4; experiment: Radioligand binding panel (Table S1); design: species or system human; details: 10 μM T1-11, n 2
# [24] = tested on: Potassium Channel [SKCA]; experiment: Radioligand binding panel (Table S1); design: species or system rat; details: 10 μM T1-11, n 2
# [25] = tested on: Rolipram; experiment: Radioligand binding panel (Table S1); design: species or system rat; details: 10 μM T1-11, n 2
# [26] = molecular target: T14, Serotonin (5-Hydroxytryptamine) 5-HT2A (Homo sapiens, UniProt P28223); experiment: Radioligand binding panel (Table S1); details: 10 μM T1-11, n 2
# T14 construct: purchased MDS Pharma Services Taiwan
# T14 sequence (P28223 whole entry): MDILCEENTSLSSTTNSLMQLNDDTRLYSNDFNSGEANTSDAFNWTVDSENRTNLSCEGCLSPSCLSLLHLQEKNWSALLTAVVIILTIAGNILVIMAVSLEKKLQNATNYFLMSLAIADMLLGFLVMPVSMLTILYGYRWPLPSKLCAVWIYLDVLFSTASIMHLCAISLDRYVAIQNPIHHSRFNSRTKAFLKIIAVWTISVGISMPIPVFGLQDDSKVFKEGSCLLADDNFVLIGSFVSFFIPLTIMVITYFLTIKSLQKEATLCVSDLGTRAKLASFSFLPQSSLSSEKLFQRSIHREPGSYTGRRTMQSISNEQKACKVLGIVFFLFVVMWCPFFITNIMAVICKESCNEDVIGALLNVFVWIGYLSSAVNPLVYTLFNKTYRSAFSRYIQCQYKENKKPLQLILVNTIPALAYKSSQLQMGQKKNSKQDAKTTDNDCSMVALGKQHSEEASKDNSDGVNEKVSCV
# Method: Radoligand binding assays were performed by MDS Pharma Services Taiwan (Taipei, Taiwan) using standard binding protocols. For the binding assay of the A2AR [67], membrane proteins collected from HEK293 cells overexpressing the human A2AR were incubated in reaction buffer [50 mM Tris-HCl (pH 7.4), 10 mM MgCl2, 1 mM EDTA, and 2 U/mL adenosine deaminase] containing ^3H-CGS21680 (50 nM) for 90 min at 25°C. Nonspecific binding was assessed in the presence of 50 µM adenosine- 5′-N-ethylcarboxamide. […] Nonspecific binding was assessed in the presence of 1 µM IB-MECA (Tocris Bioscience, Ellisville, MS, USA).
# [27] = molecular target: T15, Serotonin (5-Hydroxytryptamine) 5-HT2B (Homo sapiens, UniProt P41595); experiment: Radioligand binding panel (Table S1); details: 10 μM T1-11, n 2
# T15 construct: purchased MDS Pharma Services Taiwan
# [28] = molecular target: T16, Serotonin (5-Hydroxytryptamine) 5-HT4 (Cavia porcellus, UniProt O70528); experiment: Radioligand binding panel (Table S1); design: species or system guinea pig; details: 10 μM T1-11, n 2
# T16 construct: purchased MDS Pharma Services Taiwan
# [29] = tested on: Sigma, Non-Selective; experiment: Radioligand binding panel (Table S1); design: species or system guinea pig; details: 10 μM T1-11, n 2
# [30] = molecular target: T17, Tachykinin NK1 (Homo sapiens, UniProt P25103); experiment: Radioligand binding panel (Table S1); details: 10 μM T1-11, n 2
# T17 construct: purchased MDS Pharma Services Taiwan
# [31] = tested on: Thyroid Hormone; experiment: Radioligand binding panel (Table S1); design: species or system rat; details: 10 μM T1-11, n 2
# [32] = tested on: Tumor Necrosis Factor (TNF), Non-Selective; experiment: Radioligand binding panel (Table S1); design: species or system human; details: 10 μM T1-11, n 2
# [33] = molecular target: T18, Vanilloid (Rattus norvegicus, UniProt O35433); experiment: Radioligand binding panel (Table S1); details: 10 μM T1-11, n 2
# T18 construct: purchased MDS Pharma Services Taiwan
# T18 sequence (O35433 whole entry): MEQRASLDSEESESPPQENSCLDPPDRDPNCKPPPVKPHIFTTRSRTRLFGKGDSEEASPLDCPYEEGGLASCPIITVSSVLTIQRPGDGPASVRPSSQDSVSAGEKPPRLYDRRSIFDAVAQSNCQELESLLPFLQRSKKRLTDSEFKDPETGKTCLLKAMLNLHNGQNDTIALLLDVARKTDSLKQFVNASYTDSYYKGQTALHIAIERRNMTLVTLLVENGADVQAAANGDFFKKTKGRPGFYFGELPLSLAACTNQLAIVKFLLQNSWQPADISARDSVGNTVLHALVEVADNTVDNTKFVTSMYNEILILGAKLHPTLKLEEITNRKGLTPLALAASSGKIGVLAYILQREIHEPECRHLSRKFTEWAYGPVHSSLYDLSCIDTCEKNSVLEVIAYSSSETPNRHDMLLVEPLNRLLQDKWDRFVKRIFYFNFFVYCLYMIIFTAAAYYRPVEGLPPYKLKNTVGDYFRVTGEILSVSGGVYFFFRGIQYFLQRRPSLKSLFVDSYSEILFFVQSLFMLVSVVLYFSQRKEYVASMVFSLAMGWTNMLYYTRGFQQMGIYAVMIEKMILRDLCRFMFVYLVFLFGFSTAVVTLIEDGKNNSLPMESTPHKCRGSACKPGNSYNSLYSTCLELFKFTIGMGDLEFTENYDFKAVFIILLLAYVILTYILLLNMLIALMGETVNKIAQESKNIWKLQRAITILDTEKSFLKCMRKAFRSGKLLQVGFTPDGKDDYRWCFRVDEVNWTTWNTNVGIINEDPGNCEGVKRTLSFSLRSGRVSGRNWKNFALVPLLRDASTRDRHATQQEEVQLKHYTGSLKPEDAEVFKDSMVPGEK
# [34] = tested on: R6/2 mice; experiment: Rotarod performance of R6/2 mice; type: in vivo
# From the text: Male R6/2 mice and littermate controls were originally obtained from Jackson Laboratories (Bar Harbor, ME, USA), and mated to female control mice (B6CBAFI/J). Offspring were identified by a polymerase chain reaction (PCR) genotyping technique of genomic DNA extracted from tail tissues using primers located in the transgene (5′-[…]-3′ and 5′-[…]- AGGAG-3′) to ensure that the number of CAG repeats remained approximately 150. In total, 211 R6/2 transgenic mice were used in this study. Animals were housed at the Institute of Biomedical Sciences Animal Care Facility under a 12-h light/dark cycle. Body weights of mice were recorded once daily. Animal experiments were performed under protocols approved by the Academia Sinica Institutional Animal Care and Utilization Committee, Taipei, Taiwan.
# Motor coordination was assessed using a rotarod apparatus (UGO BASILE, Comerio, Italy) at a constant speed (12 rpm) over the period of 2 min [75]. All mice were trained for 2 days at the age of 4 weeks to allow them to become acquainted with the rotarod apparatus. Animals were then tested three times per week from the ages of 4∼12 weeks. For each test, animals were placed in the apparatus before initiation of rotation. Latency to falling was automatically recorded. Each mouse was given three trials for a maximum of 2 min for each trial.
structure (smiles),measurement,setting,value
"OC[C@H]1O[C@@H](n2cnc3c(NCc4ccc(O)cc4)ncnc32)[C@H](O)[C@@H]1O [T1-11, N ^6-(4-hydroxybenzyl)adenine riboside]",inhibition at 10 µM,[1],2%
same,inhibition at 10 µM,[2],10%
same,inhibition at 10 µM,[3],11%
same,% Inhibition,[4],3%
same,inhibition at 10 µM,[5],12%
same,% Inhibition,[6],6%
same,inhibition at 10 µM,[7],-8%
same,inhibition at 10 µM,[8],8%
same,inhibition at 10 µM,[9],-1%
same,% Inhibition,[10],8%
same,% Inhibition,[11],10%
same,% Inhibition,[12],-1%
same,inhibition at 10 µM,[13],-4%
same,inhibition at 10 µM,[14],4%
same,inhibition at 10 µM,[15],6%
same,inhibition at 10 µM,[16],-6%
same,% Inhibition,[17],-3%
same,inhibition at 10 µM,[18],-20%
same,% Inhibition,[19],12%
same,inhibition at 10 µM,[20],5%
same,% Inhibition,[21],6%
same,% Inhibition,[22],9%
same,% Inhibition,[23],0%
same,% Inhibition,[24],1%
same,% Inhibition,[25],-6%
same,inhibition at 10 µM,[26],19%
same,inhibition at 10 µM,[27],5%
same,inhibition at 10 µM,[28],1%
same,% Inhibition,[29],-3%
same,inhibition at 10 µM,[30],3%
same,% Inhibition,[31],-9%
same,% Inhibition,[32],-2%
same,inhibition at 10 µM,[33],8%
same,Motor coordination (rotarod performance),[34]; 0.05 mg/ml in drinking water from the age of 7 weeks,counteracted the progressive deterioration in motor coordination
same,Motor deterioration (rotarod performance),"[34]; subcutaneous Alzet minipump, 125 µg/mouse/day",improved motor deterioration
